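Protocol summary: plate cells (96-well), add compound at 5 concentrations, incubate 48 h, interpolate endpoints linearly. At the GI50, growth is halved. Definition used: TGI = concentration required for complete inhibition of growth.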
Assays:
Assay in all cases: DTP human tumour cell line panel, 48 h
DU-145 prostate = test system: DU-145 prostate
HOP-62 NSCLC = test system: HOP-62 NSCLC
HT29 colon = test system: HT29 colon
KM12 colon = test system: KM12 colon
NCI/ADR-RES ovarian = test system: NCI/ADR-RES ovarian
SF-539 CNS = test system: SF-539 CNS
SK-MEL-2 melanoma = test system: SK-MEL-2 melanoma
SW-620 colon = test system: SW-620 colon
T-47D breast = test system: T-47D breast
U251 CNS = test system: U251 CNS

| Compound | GI50 (DU-145 prostate) [µM] | TGI (DU-145 prostate) [µM] | GI50 (HOP-62 NSCLC) [µM] | TGI (HOP-62 NSCLC) [µM] | GI50 (HT29 colon) [µM] | TGI (HT29 colon) [µM] | GI50 (KM12 colon) [µM] | TGI (KM12 colon) [µM] | GI50 (NCI/ADR-RES ovarian) [µM] | TGI (NCI/ADR-RES ovarian) [µM] | GI50 (SF-539 CNS) [µM] | TGI (SF-539 CNS) [µM] | GI50 (SK-MEL-2 melanoma) [µM] | TGI (SK-MEL-2 melanoma) [µM] | GI50 (SW-620 colon) [µM] | TGI (SW-620 colon) [µM] | GI50 (T-47D breast) [µM] | TGI (T-47D breast) [µM] | GI50 (U251 CNS) [µM] | TGI (U251 CNS) [µM] |
| --- | --- | --- | --- | --- | --- | --- | --- | --- | --- | --- | --- | --- | --- | --- | --- | --- | --- | --- | --- | --- |
| CNCCCn1c2c(c3ccc([N+](=O)[O-])cc3c1=O)C(=O)c1cc(OC)cnc1-2 | 0.052 | 1.15 | 0.03 | 0.139 | 0.0558 | 0.38 | 0.162 | 0.593 | 0.0613 | 1.08 | 0.0505 | 0.567 | 0.348 | 0.994 | 0.0349 | 1.12 | 0.0309 | 0.283 | 0.0364 | 0.251 |
| CCC(C)[C@H]1O[C@]2(C=C[C@@H]1C)C[C@@H]1C[C@@H](C/C=C(\C)[C@@H](OC3C[C@H](OC)C(O[C@H]4C[C@H](OC)[C@@H](O)[C@H](C)O4)[C@H](C)O3)[C@@H](C)/C=C/C=C3\CO[C@@H]4[C@H](O)C(C)=C[C@@H](C(=O)O1)[C@]34O)O2 (stereo partly drawn) | 0.907 | 1.62 | 1.37 | 6.53 | 0.857 | 1.78 | 1.67 | 5.96 | 1.41 | 4.77 | 1.5 | 4.49 | 1.24 | 2.6 | – | – | 1.09 | 3.58 | 1.42 | 6.47 |
| O=C(O)C1OC1(c1cccc(Cl)c1)c1ccccc1Cl (stereo not drawn) | – | 77.5 | – | 61.3 | – | 64.7 | – | > 100 | – | 47.3 | – | 43.7 | – | 31.2 | – | > 100 | – | > 100 | – | 25.4 |
| O=c1ccn(C2CC(O)C(CO)O2)c(=O)[nH]1 (stereo not drawn) | > 5000 | > 5000 | > 5000 | > 5000 | > 5000 | > 5000 | > 5000 | > 5000 | > 5000 | > 5000 | > 5000 | > 5000 | > 5000 | > 5000 | > 5000 | > 5000 | > 5000 | > 5000 | > 5000 | > 5000 |
| COc1cc2ccccc2oc1=O | – | > 100 | – | > 100 | – | > 100 | – | > 100 | – | > 100 | – | > 100 | – | > 100 | – | > 100 | – | > 100 | – | > 100 |
| COc1ccc(C2CC(C)(O)Oc3cc4c(cc32)OCO4)cc1 (stereo not drawn) | – | > 100 | – | > 100 | – | > 82.6 | – | > 100 | – | > 78.2 | – | > 100 | – | 75.2 | – | > 100 | – | > 50.5 | – | > 100 |
| CC1(N)CCN(c2cccnc2NC(=O)c2nc(-c3ncccc3C(F)(F)F)cnc2N)CC1 | 35.3 | > 100 | 37.5 | > 100 | 19.6 | > 100 | 0.413 | > 100 | 68.7 | > 100 | 14.4 | 33.7 | 50.9 | > 100 | 28.4 | > 100 | 17.5 | 48.3 | 21.8 | > 100 |
| O=C(N/C(=C/c1ccc(Cl)cc1Cl)c1nc2ccccc2s1)c1ccccc1 | – | 31.5 | – | 26.7 | – | 40.1 | – | 26.5 | – | 39.5 | – | 31.1 | – | 36.1 | – | 24.6 | – | 43.3 | – | 9.05 |
| CC(=O)OC[C@]12CC[C@@H](C(=O)CBr)[C@@H]1[C@H]1CC[C@@H]3[C@@]4(C)CCCNC(C)(C)[C@@H]4CC[C@@]3(C)[C@]1(C)CC2 | 4.1 | 14.2 | 14.3 | 28.2 | 3.07 | 10.5 | 11.8 | 27.3 | 4.89 | 31.2 | 2.42 | 6.57 | 6.03 | 20.3 | 2.77 | 8.06 | 2.31 | 6.92 | 12.7 | 25.4 |
| COc1cc2c3c(n(CCCCN)c(=O)c2cc1OC)-c1cc2c(cc1C3=O)OCO2 | 0.147 | 1.03 | 0.322 | 1.21 | 0.586 | 25 | 1.72 | 6.32 | 2.34 | 11.2 | 0.0434 | 0.139 | 6.3 | 18 | 0.0851 | 2.3 | 1.22 | 10.3 | 0.407 | 2.86 |
| COC(=O)[C@@]12OC[C@]34[C@H]([C@@H](O)[C@@H]1O)[C@@]1(C)[C@H](O)C(=O)C=C(C)[C@@H]1C[C@H]3OC(=O)C(OC(C)=O)[C@@H]24 (stereo partly drawn) | 0.0445 | 0.206 | 0.0294 | 0.156 | 0.0303 | 0.136 | 0.03 | 0.136 | 0.904 | 8.53 | 0.0218 | 0.0612 | 0.0574 | 0.319 | 0.0242 | 0.128 | 0.0362 | 0.3 | 0.0207 | 0.0443 |
| COc1ccc(-c2nc(-c3ccccc3)c(-c3ccccc3)[nH]2)cc1OC1CCCC1 | > 100 | > 100 | > 100 | > 100 | 30.8 | > 100 | 40.9 | > 100 | > 100 | > 100 | > 100 | > 100 | > 100 | > 100 | > 100 | > 100 | 34.9 | > 100 | > 100 | > 100 |
| O=C(Nc1cccc(-n2cc(-c3ccncc3)c(-c3ccc(Cl)c(O)c3)n2)c1)c1ccc(N2CCOCC2)c(C(F)(F)F)c1 | 4.2 | > 50 | 9.38 | > 50 | 14.4 | > 50 | 1.94 | > 50 | 2.86 | > 50 | 1.37 | 17.3 | 2.89 | 15.3 | 1.72 | 5.68 | 35.9 | > 50 | 1.85 | 24.9 |
